According to publication PMC12766724, “Synthesis, Anthelmintic Activity, and Mechanism of Action of 5‑Aryl‑1H‑indoles” (Journal of Agricultural and Food Chemistry, 2025):
Values after ≈ are worked out from the molar mass of the structure shown.

Columns and labels:
Meloidogyne incognita = test system: Meloidogyne incognita; set-up: method as in not printed (reference number lost in b5); details: ref not printed (reference number lost in b5); cited from earlier work
C. elegans wild-type N2 = assay: Microscopic scoring (score 1-5) of worm populations prior to the Chitinase assay, L1 exposed 4 days; type: in vivo, Caenorhabditis elegans; details: 50 μM; score 1 (dead/arrested L1) to 5 (healthy)
Text: Dead or mostly immobile worms, arrested at the L1 stage, received a score of 1. Populations with severely delayed development were scored as 2. More developmentally advanced, but still obviously delayed worms were given the score of 3. Adult worms that produce a noticeably lower number of progeny received a score of 4. Healthy worms that reproduce normally (i.e., hundreds of eggs and larvae are present) were scored as 5 (see Figure C for representative images). In a typical, correctly prepared experiment, vehicle-treated populations should receive a score of 5, while worms treated with ivermectin (positive control) should receive a score of 1.
(§1) After exposing L1 larvae to the compounds for 4 days, we observed the populations under a microscope and measured the Chitinase activity. The larvae produce the enzyme while hatching, and its activity is indicative of the reproductive capacity of the worms. Populations that fail to reproduce due to acute or reproductive toxicity or developmental abnormalities are detected.

Skin fibroblasts (BJ) = assay: Resazurin assay, 3-day treatment; type: cell-based, human; details: BJ
Protocol: Skin fibroblasts (BJ) were obtained from the American Type Culture Collection (ATCC, Manassas, VA), while human keratinocytes (HaCaT) were sourced from the German Cancer Research Center in Heidelberg, Germany. Cells were cultured in a standard DMEM medium from Sigma-Aldrich, supplemented with 10% fetal bovine serum, 2 mM glutamine, 100 U/mL penicillin, and 100 μg/mL streptomycin. Cultures were maintained under standard conditions (37 °C, 5% CO2, humidified atmosphere) and subcultured two to three times per week. We assessed the effect of 3-day compound treatments on cell viability using a resazurin reduction assay measuring mitochondrial activity. Approximately 5,000 cells in 80 μL of culture medium were seeded into the wells of a 96-well plate. Twenty-four hours later, 20 μL of 5-fold concentrated test compound solutions was added and tested across three concentrations prepared through 2-fold serial dilutions. The highest final concentration was 40 μM. After 72 h, we added an 11-fold concentrated resazurin solution to the wells, achieving a final concentration of 0.0125 μM. Fluorescence (ex = 570 nm, em = 610 nm) was measured after 3 h of incubation. […]

C. elegans N2 wild-type = assay: Chitinase assay (reproductive capacity); type: in vivo, Caenorhabditis elegans; details: Caenorhabditis elegans
Protocol: (§2) The effect of compounds on C. elegans was evaluated using the Chitinase assay as we described previously.
as §1

[1] = test system: Heterodera schachtii second-stage juveniles (J2); assay: Motility on WMicrotracker ONE; type: in vivo
Protocol: H. schachtii was maintained on mustard (Sinapsis alba cv. Albatros) roots grown in vitro on modified KNOP medium according to the previously published protocols. ,
(§3) The effect of compounds on motility of H. contortus, D. destructor, and H. schachtii was evaluated using the WMicrotracker ONE platform according to previously published protocols. ,
(§4) The instrument evaluates the activity of small animals by counting how many times infrared light microbeams passing through the wells of a microtiter plate are interrupted. In age-unsynchronized populations of D. destructor, we observed reduced motility of worm populations treated with the halogenated derivatives i-19, i-20, and i-21 (Figures A, S2.1A, S2.2A and Table S2.1). […] The decreases in mean activity counts after 72 h of treatment at 100 μM were 85% and 97%, respectively.

[2] = test system: human keratinocytes (HaCaT); assay: Resazurin assay, 3-day treatment; type: cell-based
Protocol: Skin fibroblasts (BJ) were obtained from the American Type Culture Collection (ATCC, Manassas, VA), while human keratinocytes (HaCaT) were sourced from the German Cancer Research Center in Heidelberg, Germany. Cells were cultured in a standard DMEM medium from Sigma-Aldrich, supplemented with 10% fetal bovine serum, 2 mM glutamine, 100 U/mL penicillin, and 100 μg/mL streptomycin. Cultures were maintained under standard conditions (37 °C, 5% CO2, humidified atmosphere) and subcultured two to three times per week. We assessed the effect of 3-day compound treatments on cell viability using a resazurin reduction assay measuring mitochondrial activity. Approximately 5,000 cells in 80 μL of culture medium were seeded into the wells of a 96-well plate. Twenty-four hours later, 20 μL of 5-fold concentrated test compound solutions was added and tested across three concentrations prepared through 2-fold serial dilutions. The highest final concentration was 40 μM. After 72 h, we added an 11-fold concentrated resazurin solution to the wells, achieving a final concentration of 0.0125 μM. Fluorescence (ex = 570 nm, em = 610 nm) was measured after 3 h of incubation.
The disubstituted derivatives i-25 and i-27 were the most toxic in the set, causing around a 50% decrease in viability of HaCaT cells at 40 μM.

[3] = Visual inspection of DMSO stock solutions; type: physicochemical; details: 50 mM in DMSO, stored at −20 °C
Protocol: For bioassays, all compounds were dissolved in dimethyl sulfoxide (DMSO) to prepare 50 mM stock solutions. Stock solutions were stored at −20 °C and diluted in water or the appropriate media for each bioassay to achieve the final concentrations indicated below. Solubility was evaluated by visual inspection of stock solutions (assessing clarity or cloudiness) and by microscopic examination of media to detect potential crystal formation. The final DMSO concentrations in the bioassays were kept at levels that had no detectable impact on test organisms, as determined by comparison with water-treated controls (0.1% for cell cultures, 0.2% for nematodes, and 0.3% for Arabidopsis thaliana Col-0).

[4] = test system: age unsynchronized Ditylenchus destructor; assay: Motility on WMicrotracker ONE; type: in vivo
Protocol: Populations of D. destructor, kindly provided by Central Institute for Supervising and Testing in Agriculture, the Ministry of Agriculture of the Czech Republic, were maintained according to the protocol previously described here.
as §3, §4

[5] = test system: Arabidopsis thaliana Col-0; assay: Germination rate and phytotoxicity; type: in vivo; details: for average fraction of germinated seeds: 5 DPS; for main root length / plant weight: 10 DPS
Protocol: Wild-type A. thaliana (Col-0 ecotype) seeds were sterilized with 70% EtOH with 0.1% Tween-20 solution (2 × 1 mL) for 10 min, rinsed with 96% EtOH (1 × 1 mL) for 10 min, and kept in the fridge (4 °C in the dark). Seeds were sown on a sterile 1/2 MS medium supplemented with 0.3% DMSO as a mock and test compounds at 5, 10, 50, and 100 μM concentrations in 0.3% DMSO. Plates were kept in long-day light conditions (22 °C/20 °C, 16 h light/8 h dark, 100 μmol m^–2 s^–1). After 5 days, the germination rate was evaluated. After an additional 5 days, primary root growth was measured with ImageJ software (https://imagej.nih.gov/ij/), and seedlings were weighted.

[6] = test system: C. elegans DA1316 avr-14(ad1305) I; avr-15(vu227) glc-1(pk54) V.; assay: Chitinase assay (reproductive capacity); type: in vivo; details: Caenorhabditis elegans; ivermectin-resistant strain
Protocol: (§5) C. elegans strains used in this study were N2 (wild-type), levamisole-resistant strains ZZ15 (lev-8(x15) X) and […] (lev-1(e211) IV), ivermectin-resistant strain DA1316 (avr-14(ad1305) I; avr-15(vu227) glc-1(pk54) V), mebendazole-resistant strain […] (ben-1(e1880) III), and three strains with mutations in succinate dehydrogenase, RP2699, RP2700, and RP2702. The worms were cultivated on Nematode Growth Medium agar plates seeded with Escherichia coli OP50 in 20 °C according to the standard cultivation protocols. Strains RP2699, RP2700, and RP2702 were generated by Prof. Peter Roy’s group. All other strains and bacteria were purchased from the Caenorhabditis Genetics Center (CGC, Minneapolis, MN).
as §2
(§6) Lastly, strain DA1316 has mutations in three genes encoding subunits of the glutamate-gated chloride channel and is highly resistant to avermectins.

[7] = test system: C. elegans ZZ15 lev-8(x15) X.; assay: Chitinase assay (reproductive capacity); type: in vivo; details: Caenorhabditis elegans; levamisole-resistant strain
Protocol: as §5, §2, §6

[8] = test system: C. elegans CB3474 ben-1(e1880) III.; assay: Chitinase assay (reproductive capacity); type: in vivo; details: Caenorhabditis elegans; mebendazole-resistant strain
Protocol: as §5, §2, §6

[9] = test system: C. elegans CB211 lev-1(e211) IV.; assay: Chitinase assay (reproductive capacity); type: in vivo; details: Caenorhabditis elegans; levamisole-resistant strain
Protocol: as §5, §2, §6

[10] = 10 µM group, initial (prior to the treatment)
[11] = 50 µM group, initial (prior to the treatment)
[12] = 100 µM group, initial (prior to the treatment)

Row | SMILES | average score (C. elegans wild-type N2) | Average viability (signal intensity relative to control) (Skin fibroblasts (BJ); 10 µM) | Average viability (signal intensity relative to control) (Skin fibroblasts (BJ); 20 µM) | Average viability (signal intensity relative to control) (Skin fibroblasts (BJ); 40 µM) | IC50 (C. elegans N2 wild-type) | average activity counts [1, 10] | average activity counts ([1]; 10 µM, 48 h) | average activity counts ([1]; 10 µM, 72 h) | average activity counts [1, 11] | average activity counts ([1]; 50 µM, 48 h) | average activity counts ([1]; 50 µM, 72 h) | average activity counts [1, 12] | average activity counts ([1]; 100 µM, 48 h) | average activity counts ([1]; 100 µM, 72 h) | Average viability (signal intensity relative to control) ([2]; 10 µM) | Average viability (signal intensity relative to control) ([2]; 20 µM) | Average viability (signal intensity relative to control) ([2]; 40 µM) | average activity counts [4, 10] | average activity counts ([4]; 10 µM, 48 h) | average activity counts ([4]; 10 µM, 72 h) | also measured
1 | O=C(O)Cc1c[nH]c2ccccc12 [Indole-3-acetic acid] | – | – | – | – | – | – | – | – | – | – | – | – | – | – | – | – | – | – | – | – | LC50 (Meloidogyne incognita): 117 µg/mL (≈ 668 µM)
2 | CCOc1ccccc1-c1ccc2[nH]ccc2c1 [i-8] | 2.5 | – | – | – | – | – | – | – | – | – | – | – | – | – | – | – | – | – | – | – | –
3 | CCOc1ccc(-c2ccc3[nH]ccc3c2)cc1 [i-10] | 1.8 | – | – | – | – | – | – | – | – | – | – | – | – | – | – | – | – | – | – | – | –
4 | CCCOc1ccccc1-c1ccc2[nH]ccc2c1 [i-11] | 1.5 | – | – | – | – | – | – | – | – | – | – | – | – | – | – | – | – | – | – | – | –
5 | CC(C)c1ccc(-c2ccc3[nH]ccc3c2)cc1 [i-17] | – | 0.9 ± 0.01 | 0.92 ± 0.05 | 0.82 ± 0.07 | 7.6 ± 2.3 µM | 178 | 160 | 139 | 181 | 158 | 158 | 197 | 158 | 122 | 0.98 ± 0.01 | 0.99 ± 0.01 | 0.87 ± 0.04 | 228 | 211 | 212 | stability of stock solutions [3]: precipitation of stock solutions after a single freeze–thaw cycle; average activity counts [4, 11]: 228; average activity counts ([4]; 50 µM, 48 h): 223; average activity counts ([4]; 50 µM, 72 h): 224; average activity counts [4, 12]: 245; average activity counts ([4]; 100 µM, 48 h): 206; average activity counts ([4]; 100 µM, 72 h): 212; average fraction of germinated seeds ([5]; 5 µM): 0.95; main root length ([5]; 5 µM): 38.83 mm; plant weight ([5]; 5 µM): 35.01 mg; average fraction of germinated seeds ([5]; 10 µM): 0.98; main root length ([5]; 10 µM): 37.53 mm; plant weight ([5]; 10 µM): 28.28 mg; average fraction of germinated seeds ([5]; 50 µM): 0.89; main root length ([5]; 50 µM): 31.19 mm; plant weight ([5]; 50 µM): 26.18 mg
6 | CC(C)Oc1cc(-c2ccc3[nH]ccc3c2)ccc1Cl [i-27] | – | 0.92 ± 0.02 | 0.92 ± 0.03 | 0.89 ± 0.03 | 9.75 ± 1.65 µM | 169 | 161 | 167 | 189 | 124 | 113 | 169 | 161 | 111 | 0.78 ± 0.12 | 0.6 ± 0.19 | 0.48 ± 0.21 | 242 | 235 | 211 | decrease in viability ([2]; 40 µM): ~50%; IC50 [6]: 10.79 ± 0.08 µM; IC50 [7]: 8.83 ± 0.47 µM; IC50 [8]: 7.48 ± 0.06 µM; IC50 [9]: 9.85 ± 0.33 µM; average activity counts [4, 11]: 248; average activity counts ([4]; 50 µM, 48 h): 227; average activity counts ([4]; 50 µM, 72 h): 223; average activity counts [4, 12]: 213; average activity counts ([4]; 100 µM, 48 h): 207; average activity counts ([4]; 100 µM, 72 h): 202; average fraction of germinated seeds ([5]; 5 µM): 0.94; main root length ([5]; 5 µM): 39.90 mm; plant weight ([5]; 5 µM): 33.97 mg; average fraction of germinated seeds ([5]; 10 µM): 0.98; main root length ([5]; 10 µM): 40.35 mm; plant weight ([5]; 10 µM): 35.66 mg; average fraction of germinated seeds ([5]; 50 µM): 0.95; main root length ([5]; 50 µM): 37.27 mm; plant weight ([5]; 50 µM): 30.34 mg
